Target: T1, human GPR120 (Homo sapiens, UniProt Q5NUL3)
T1 construct: expressed in transfected cells
T1 sequence (Q5NUL3 1-361): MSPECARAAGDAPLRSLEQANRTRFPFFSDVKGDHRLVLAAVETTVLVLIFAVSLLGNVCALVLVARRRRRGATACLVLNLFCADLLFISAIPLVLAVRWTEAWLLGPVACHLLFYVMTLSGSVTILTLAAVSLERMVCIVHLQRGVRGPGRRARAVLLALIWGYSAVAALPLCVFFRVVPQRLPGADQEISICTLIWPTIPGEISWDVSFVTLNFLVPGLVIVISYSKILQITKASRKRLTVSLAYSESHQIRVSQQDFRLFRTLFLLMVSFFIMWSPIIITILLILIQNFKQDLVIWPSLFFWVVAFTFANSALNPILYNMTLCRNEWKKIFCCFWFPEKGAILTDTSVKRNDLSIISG
Assay: Human GPR120 IP1 Assay (inositol phosphate turnover, CisBio IP-One kit)
Assay type: cell-based
Conditions: IP1 accumulation in CHO-K1 cells stably expressing the short form of human GPR120; 60 min compound incubation; 4-parameter fit; read-out: hGPR120 EC50
Method in brief: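 CHO-K1 cells stably expressing short-form human GPR120 were stimulated with compounds for 60 minutes at 37 degrees in stimulation buffer. IP1 accumulation measured by HTRF competitive immunoassay (665/620 nm ratio) against an IP1 standard curve, normalized to a reference compound; EC50 from 4-parameter fit.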

Row | SMILES | EC50
1 | Cc1ccc(-n2nc(C)c(C#N)c2N2CCc3cc(CCCCC(=O)O)ccc3C2)cc1 [Example 134, 5-{2-[4-cyano-3-methyl-1-(4-methyl-phenyl)-1H-pyrazol-5-yl]-1,2,3,4-tetrahydroisoquinolin-6-yl}pentanoic acid] | 41 nM
2 | Cc1ccc(-n2nc(C)c(Cl)c2N2CCc3cc(CCCCC(=O)O)ccc3C2)cc1 [Example 137, 5-{2-[4-chloro-3-methyl-1-(4-methylphenyl)-1H-pyrazol-5-yl]-1,2,3,4-tetrahydroisoquinolin-6-yl} pentanoic acid] | 93 nM
3 | Cc1ccc(-n2nc(C)c(C#N)c2N2CCc3cc(OCCCCO)ccc3C2)cc1 [Example 139, 5-[6-(4-hydroxybutoxy)-3,4-dihydro-isoquinolin-2(1H)-yl]-3-methyl-1-(4-methylphenyl)-1H-pyrazole-4-carbonitrile] | 187 nM
4 | COc1ccc(-n2nc(C)c(C#N)c2N2CCc3ccccc3C2)cc1 [Example 141, 5-(3,4-dihydroisoquinolin-2(1H)-yl)-1-(4-methoxyphenyl)-3-methyl-1H-pyrazole-4-carbonitrile] | 288 nM
5 | Cc1ccc(-n2nc(C)c(F)c2CN2CCc3cc(CCC(=O)O)ccc3C2)cc1 [Example 143, 3-(2-{[4-fluoro-3-methyl-1-(4-methylphenyl)-1H-pyrazol-5-yl]methyl}-1,2,3,4-tetrahydroisoquinolin-6-yl)propanoic acid] | 395 nM
6 | Cc1ccc(-n2nc(C)c(C#N)c2N2CCc3cc(OCCCO)ccc3C2)cc1 [Example 144, 5-[6-(3-hydroxypropoxy)-3,4-dihydroisoquinolin-2(1H)-yl]-3-methyl-1-(4-methylphenyl)-1H-pyrazole-4-carbonitrile] | 4300 nM
7 | Cc1ccc(-n2nc(C)c(Cl)c2N2CCc3c(ccc(CCC(=O)O)c3F)C2)cc1 [Example 146, 3-{2-[4-chloro-3-methyl-1-(4-methylphenyl)-1H-pyrazol-5-yl]-5-fluoro-1,2,3,4-tetrahydroisoquinolin-6-yl}propanoic acid] | 309 nM
8 | Cc1cc(-c2cscn2)nc(N2CCc3c(ccc(CCC(=O)O)c3F)C2)c1C#N [Example 147, 3-[2-(3-Cyano-4-methyl-6-thiazol-4-yl-pyridin-2-yl)-5-fluoro-1,2,3,4-tetrahydro-isoquinolin-6-yl]-propionic acid] | 141 nM
9 | COc1cc(OC2CCC2)nc(N2CCc3c(ccc(CCC(=O)O)c3F)C2)c1F [Example 148, 3-(2-(6-cyclobutoxy-3-fluoro-4-methoxypyridin-2-yl)-5-fluoro-1,2,3,4-tetra-hydroisoquinolin-6-yl)propanoic acid] | 9 nM
10 | Cc1nc(OC2CCC2)cc(N2CCc3c(ccc(CCC(=O)O)c3F)C2)c1C#N [Example 149, 3-(2-(3-cyano-6-cyclobutoxy-2-methylpyridin-4-yl)-5-fluoro-1,2,3,4-tetrahydroisoquinolin-6-yl)propanoic acid] | 33 nM
11 | N#Cc1c(Cl)cc(OC2CCC2)cc1N1CCc2c(ccc(CCC(=O)O)c2F)C1 [Example 150, 3-{2-[3-chloro-2-cyano-5-(cyclobutyloxy)phenyl]-5-fluoro-1,2,3,4-tetrahydroisoquinolin-6-yl} propanoic acid] | 16 nM
12 | Cc1nc(N2CCc3c(ccc(CCC(=O)O)c3F)C2)nc(OC2CCC2)c1C#N [Example 151, 3-{2-[5-cyano-4-(cyclobutyloxy)-6-methylpyrimidin-2-yl]-5-fluoro-1,2,3,4-tetrahydroisoquino-lin-6-yl}propanoic acid] | 34 nM
13 | Cc1nc(OC2CCC2)nc(N2CCc3c(ccc(CCC(=O)O)c3F)C2)c1C#N [Example 152, 3-{2-[5-cyano-2-(cyclobutyloxy)-6-methylpyrimidin-4-yl]-5-fluoro-1,2,3,4-tetrahydroisoquino-lin-6-yl}propanoic acid] | 69 nM
14 | N#Cc1c(F)cc(OC2CCC2)cc1N1CCc2c(ccc(CCC(=O)O)c2Cl)C1 [Example 153, 3-{5-chloro-2-[2-cyano-5-(cyclobutyloxy)-3-fluorophenyl]-1,2,3,4-tetrahydroisoquinolin-6-yl}-propanoic acid] | 87 nM
15 | O=C(O)CCc1ccc2c(c1F)CCN(c1cccc(C3CC3)n1)C2 [Example 154, 3-[2-(6-cyclopropylpyridin-2-yl)-5-fluoro-1,2,3,4-tetrahydroiso-quinolin-6-yl]propanoic acid] | 167 nM
16 | N#Cc1c(F)cc(OC2CCC2)cc1N1CCc2c(ccc(CCC(=O)O)c2F)C1 [Example 155, 3-{2-[2-cyano-5-(cyclobutyloxy)-3-fluorophenyl]-5-fluoro-1,2,3,4-tetrahydroisoquinolin-6-yl}-propanoic acid] | 17 nM
17 | O=C(O)CCc1ccc2c(c1)CCN(c1cc(OC(F)(F)F)cc(Cl)c1Cl)C2 [Example 156, 3-{2-[2,3-dichloro-5-(trifluoro-methoxy)phenyl]-1,2,3,4-tetra-hydroisoquinolin-6-yl}propanoic acid] | 62 nM
18 | Cc1c(CCC(=O)O)ccc2c1CCN(c1cc(OC3CCC3)cc(F)c1C#N)C2 [Example 157, 3-{2-[2-cyano-5-(cyclobutyloxy) 3-fluorophenyl]-5-methyl-1,2,3,4-tetrahydroisoquinolin-6-yl}-propanoic acid] | 15 nM
